For this assay, the system named is LXRα and/or LXRβ. Kind of assay: Co-transfection assay (LXRE luciferase reporter, CV-1 cells). As to conditions: tested as described in Example 33; IC50 or EC50 for LXRα and/or LXRβ, isoform not specified; read-out: activity (IC50 or EC50 for LXR). Type of assay: cell-based, human. The method in brief:
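Luciferase signal measures LXR-RXR transcriptional activation in transiently transfected CV-1 cells carrying human LXRα or LXRβ, RXRα and a single-copy LXRE reporter. Cells were exposed to compound for 20 h at 37 °C with at most 1% DMSO, using 10 μM final for screening. Potency was derived from 4-parameter fits of 8-point, half-log dose curves averaged over ≥3 runs, and efficacy was expressed as % of a reference agonist.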

Bounds are passed on as bounds.

Regarding `CC(C)(O)c1nc(-c2ccccc2C(F)(F)F)n(-c2ccc(-c3cccc(S(C)(=O)=O)c3)cc2)c1F` [Example 406, 2-{5-fluoro-1-[3′-(methyl-sulfonyl)biphenyl-4-yl]-2-[2-(trifluoro-methyl)phenyl]-1H-imidazol-4-yl}propan-2-ol], the IC50 or EC50 (potency, activation or inhibition) is < 1000 nM. As to `CC(C)(O)c1cn(-c2cccc(-c3ccc(S(C)(=O)=O)cc3)c2)c(-c2ccccc2C(F)(F)F)n1` [Example 407, 2-{1-[4′-(methylsulfonyl)biphenyl-3-yl]-2-[2-(trifluoromethyl)phenyl]-1H-imidazol-4-yl}propan-2-ol], the IC50 or EC50 (potency, activation or inhibition) is < 1000 nM. Next, `C/C(=N\O)c1cn(-c2ccc(-c3cccc(S(C)(=O)=O)c3)cc2)c(-c2ccccc2Cl)n1` [Example 408, 1-{2-(2-chlorophenyl)-1-[3′-(methylsulfonyl)biphenyl-4-yl]-1H-imidazol-4-yl}ethanone oxime]: < 1000 nM.

Take `CC(C)(O)c1cccc(-c2ccc(-n3cc(C(C)(C)O)nc3-c3ccccc3Cl)cc2)c1` [Example 409, 2-{2-(2-chlorophenyl)-1-[3′-(1-hydroxy-1-methylethyl)biphenyl-4-yl]-1H-imidazol-4-yl}propan-2-ol]: the IC50 or EC50 (potency, activation or inhibition) fell in the range of 1000 to 10000 nM.

Regarding `CC(C)(O)c1cn(-c2ccc(-c3cccc(S(C)(=O)=O)c3)cc2)c(-c2c(F)cccc2F)n1` [Example 410, 2-{2-(2,6-difluorophenyl)-1-[3′-(methylsulfonyl)biphenyl-4-yl]-1H-imidazol-4-yl}propan-2-ol], the IC50 or EC50 (potency, activation or inhibition) lay in the range of 1000 to 10000 nM.

For the molecule `CC(=O)c1cn(-c2ccc(-c3cccc(S(C)(=O)=O)c3)cc2)c(-c2ccccc2C(F)(F)F)n1` [Example 411, 1-{1-[3′-(methylsulfonyl)biphenyl-4-yl]-2-[2-(trifluoromethyl)phenyl]-1H-imidazol-4-yl}ethanone], the IC50 or EC50 (potency, activation or inhibition) is < 1000 nM.

As for `C/C(=N\O)c1cn(-c2ccc(-c3cccc(S(C)(=O)=O)c3)cc2)c(-c2ccccc2C(F)(F)F)n1` [Example 412, 1-{1-[3′-(methylsulfonyl)biphenyl-4-yl]-2-[2-(trifluoromethyl)phenyl]-1H-imidazol-4-yl}ethanone oxime], the IC50 or EC50 (potency, activation or inhibition) is < 1000 nM. As for `CC(C)S(=O)(=O)c1cccc(-c2ccc(-n3cc(C(C)(C)O)nc3-c3ccccc3C(F)(F)F)cc2)c1` [Example 413], the IC50 or EC50 (potency, activation or inhibition) was < 1000 nM. The figure for `CCS(=O)(=O)c1cccc(-c2ccc(-n3cc(C(C)(C)O)nc3-c3ccccc3Cl)cc2)c1` [Example 415, 2-{2-(2-chlorophenyl)-1-[3′-(ethylsulfonyl)biphenyl-4-yl]-1H-imidazol-4-yl}propan-2-ol] is 1000 to 10000 nM. Regarding `CC(C)(O)c1cn(-c2ccc(-c3cccc(S(C)(=O)=O)c3)cc2)c(-c2c(F)cccc2Cl)n1` [Example 416, 2-{2-(2-chloro-6-fluorophenyl)-1-[3′-(methylsulfonyl)biphenyl-4-yl]-1H-imidazol-4-yl}propan-2-ol], the IC50 or EC50 (potency, activation or inhibition) was in the range of 1000 to 10000 nM.

As to `CC(C)(O)c1cn(-c2ccc(-c3cccc(S(C)(=O)=O)c3)cc2Cl)c(-c2ccccc2Cl)n1` [Example 417, 2-{1-[3-chloro-3′-(methyl-sulfonyl)biphenyl-4-yl]-2-(2-chlorophenyl)-1H-imidazol-4-yl}propan-2-ol], the IC50 or EC50 (potency, activation or inhibition) is < 1000 nM. Next, `Cc1cc(-c2cccc(S(C)(=O)=O)c2)ccc1-n1cc(C(C)(C)O)nc1-c1ccccc1Cl` [Example 418, 2-{2-(2-chlorophenyl)-1-[3-methyl-3′-(methylsulfonyl)biphenyl-4-yl]-1H-imidazol-4-yl}propan-2-ol]: < 1000 nM; `CCS(=O)(=O)c1cccc(-c2ccc(-n3cc(C(C)(C)O)nc3-c3c(F)cccc3F)cc2)c1` [Example 419, 2-{2-(2,6-difluorophenyl)-1-[3′-(ethylsulfonyl)biphenyl-4-yl]-1H-imidazol-4-yl}propan-2-ol]: 1000 to 10000 nM; `CC(C)(O)c1cn(-c2ccc(-c3cccc(S(C)(=O)=O)c3)cn2)c(-c2ccccc2C(F)(F)F)n1` [Example 420, 2-(1-{5-[3-(methyl-sulfonyl)phenyl]pyridin-2-yl}-2-[2-(trifluoromethyl)phenyl]-1H-imidazol-4-yl)propan-2-ol]: 1000 to 10000 nM.

As for `CC(C)(O)c1cn(-c2ccc(-c3cccc(S(C)(=O)=O)c3)nc2)c(-c2ccccc2C(F)(F)F)n1` [Example 421, 2-(1-{6-[3-(methyl-sulfonyl)phenyl]pyridin-3-yl}-2-[2-(trifluoromethyl)phenyl]-1H-imidazol-4-yl)propan-2-ol], the IC50 or EC50 (potency, activation or inhibition) was 1000 to 10000 nM. Next, `CC(C)(O)c1cn(Cc2ccccc2Cl)c(-c2ccc(-c3cccc(S(C)(=O)=O)c3)cc2)n1` [Example 443, 2-(1-(2-chlorobenzyl)-2-(3′-(methylsulfonyl)biphenyl-4-yl)-1H-imidazol-4-yl)propan-2-ol]: < 1000 nM; `CC(C)(O)c1cn(Cc2cccc(Cl)c2Cl)c(-c2ccc(-c3cccc(S(C)(=O)=O)c3)cc2)n1` [Example 444, 2-(1-(2,3-dichlorobenzyl)-2-(3′-(methylsulfonyl)biphenyl-4-yl)-1H-imidazol-4-yl)propan-2-ol]: < 1000 nM; `CC(C)(O)c1nc(-c2ccc(-c3cccc(S(C)(=O)=O)c3)cc2Cl)n(-c2c(Cl)cccc2Cl)c1Cl` [Example 445, 2-(5-chloro-2-(3-chloro-3′-(methylsulfonyl)biphenyl-4-yl)-1-(2,6-dichlorophenyl)-1H-imidazol-4-yl)propan-2-ol]: < 1000 nM. The figure for `CON(C)C(=O)c1ccc(-c2ccc(-n3cc(C(C)(C)O)nc3-c3c(F)cccc3Cl)c(Cl)c2)cc1S(C)(=O)=O` [Example 448, 3′-chloro-4′-(2-(2-chloro-6-fluorophenyl)-4-(2-hydroxypropan-2-yl)-1H-imidazol-1-yl)-N-methoxy-N-methyl-3-(methylsulfonyl)biphenyl-4-carboxamide] is > 10000 nM; for `CC(C)(O)c1cn(-c2ccc(-c3cccc(S(C)(=O)=O)c3)cc2F)c(Cc2cccc(Cl)c2Cl)n1` [Example 449, 2-(2-(2,3-dichlorobenzyl)-1-(3-fluoro-3′-(methylsulfonyl)biphenyl-4-yl)-1H-imidazol-4-yl)propan-2-ol] it is < 1000 nM; for `CCS(=O)(=O)c1cccc(-c2ccc(-n3cc(C(C)(C)O)nc3Cc3cccc(Cl)c3Cl)c(F)c2)c1` [Example 450, 2-(2-(2,3-dichlorobenzyl)-1-(3′-(ethylsulfonyl)-3-fluorobiphenyl-4-yl)-1H-imidazol-4-yl)propan-2-ol] it is < 1000 nM. The figure for `CC(C)(O)c1cn(-c2ccc(-c3cccc(S(C)(=O)=O)c3)cc2Cl)c(C(C)(C)c2cccc(Cl)c2Cl)n1` [Example 451, 2-(1-(3-chloro-3′-(methyl-sulfonyl)biphenyl-4-yl)-2-(2-(2,3-dichlorophenyl)propan-2-yl)-1H-imidazol-4-yl)propan-2-ol] is < 1000 nM.

The record behind these values is US9000022B2 (Exelixis Patent Company LLC, priority 2005, dated 2015).
